# In patent US7732607B2 (priority 2005, dated 2010):
# Biological target: human M3 receptors (Homo sapiens, UniProt P20309)
# Format: binding
# Details: human clonal line TE671/RD
# Sequence of human M3 receptors (P20309 whole entry): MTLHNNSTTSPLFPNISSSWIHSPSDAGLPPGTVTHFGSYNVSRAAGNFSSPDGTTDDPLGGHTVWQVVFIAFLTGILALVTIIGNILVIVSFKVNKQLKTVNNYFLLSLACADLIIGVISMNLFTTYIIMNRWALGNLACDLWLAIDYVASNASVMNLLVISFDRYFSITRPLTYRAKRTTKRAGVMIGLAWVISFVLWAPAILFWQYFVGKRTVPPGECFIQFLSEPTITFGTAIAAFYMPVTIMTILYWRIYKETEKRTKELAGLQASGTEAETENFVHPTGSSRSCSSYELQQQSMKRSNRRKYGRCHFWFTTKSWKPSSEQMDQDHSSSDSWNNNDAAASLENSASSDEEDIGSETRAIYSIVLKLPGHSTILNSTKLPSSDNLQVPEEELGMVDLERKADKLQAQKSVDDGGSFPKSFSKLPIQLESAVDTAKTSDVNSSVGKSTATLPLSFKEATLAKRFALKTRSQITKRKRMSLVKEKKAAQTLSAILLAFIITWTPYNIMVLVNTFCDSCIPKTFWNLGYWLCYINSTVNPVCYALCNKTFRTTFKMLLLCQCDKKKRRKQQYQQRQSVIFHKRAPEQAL
row,SMILES,ability to inhibit [3H]QNB binding at muscarinic sites
1,"COc1cccc2cc(C(=O)N3CC(c4cccnc4)C4C3C3CCN4CC3)oc12 (stereo not drawn) [Compound 2, 5-(7-Methoxybenzofuran-2-ylcarbonyl)-3-pyridin-3-yl-1,5-diazatricyclo[5.2.2.0<2,6>]undecane]",None of the compounds was able to inhibit [^3H]QNB binding
2,"O=C(c1c[nH]c2ccccc12)N1CC(c2cccnc2)C2C1C1CCN2CC1 (stereo not drawn) [Compound 4, 5-(1H-Indol-3-ylcarbonyl)-3-pyridin-3-yl-1,5-diazatricyclo[5.2.2.0<2,6>]undecane]",None of the compounds was able to inhibit [^3H]QNB binding
3,"O=C(c1cc2ccccc2o1)N1CC(c2cccnc2)C2C1C1CCN2CC1 (stereo not drawn) [Compound 1, 5-(Benzofuran-2-ylcarbonyl)-3-pyridin-3-yl-1,5-diazatricyclo[5.2.2.0<2,6>]undecane]",None of the compounds was able to inhibit [^3H]QNB binding
